Assay results published in PubChem BioAssay (NCI).
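A five-concentration, 48-hour dose response in 96-well plates underlies each endpoint, interpolated linearly between surrounding concentrations. Here, GI50 denotes the concentration required for 50% inhibition of growth. The concentration for full growth arrest is given as TGI.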

How the values were obtained:
Experiment in all cases: NCI tumour cell line growth inhibition, 48 h
[1] = test system: LOX IMVI melanoma
[2] = test system: UACC-62 melanoma
[3] = test system: COLO 205 colon
[4] = test system: CAKI-1 renal
[5] = test system: MOLT-4 leukemia
[6] = test system: RXF 393 renal
[7] = test system: SF-539 CNS
[8] = test system: HOP-92 NSCLC
[9] = test system: UO-31 renal

Row | Compound | TGI [1] [µM] | TGI [2] [µM] | TGI [3] [µM] | TGI [4] [µM] | TGI [5] [µM] | TGI [6] [µM] | TGI [7] [µM] | TGI [8] [µM] | TGI [9] [µM] | GI50 [2] [µM] | GI50 [3] [µM] | GI50 [4] [µM] | GI50 [6] [µM] | GI50 [9] [µM] | GI50 [7] [µM]
1 | O=C1c2ccccc2C(=O)N1NC1=NCCN1 | > 100 | > 100 | > 100 | > 100 | > 100 | > 100 | > 100 | – | – | – | – | – | – | – | –
2 | OC(Cc1cc(CC(O)(C(F)(F)F)C(F)(F)F)nc(CC(O)(C(F)(F)F)C(F)(F)F)c1)(C(F)(F)F)C(F)(F)F | 1.34 | 1.6 | 2.14 | 2.31 | > 10 | 4.57 | 3.44 | 3.45 | – | – | – | – | – | – | –
3 | COc1cc(C(c2ccc3c(c2)OCO3)C2SCCCS2)cc(OC)c1OC (stereo not given) | – | 28.2 | 3.08 | 20.1 | 8.29 | 4.47 | – | – | > 100 | – | – | – | – | – | –
4 | CCCCCCc1cc2cc(C(=O)Nc3cccc(F)c3)c(=N)oc2cc1O | 3.41 | 7.04 | 34.7 | 10.2 | 7.69 | – | 19.2 | – | 12.4 | – | – | – | – | – | –
5 | CCCCCCCCCCCCCCCCCCOc1ccccc1COP(=O)(O)OOCC[N+](C)(C)C | – | 2.82 | 2.57 | 4.14 | – | 1.96 | 3.02 | – | 6.76 | 0.901 | 1.04 | 1.2 | 0.911 | 1.27 | 1.19
6 | N=c1oc2cc(O)ccc2cc1C(=O)Nc1cccc2ccccc12 | 18.4 | 14.3 | 34.6 | 24.8 | > 35.4 | 18.7 | – | 14.5 | 19.9 | – | – | – | – | – | –
7 | O=C(Nc1ccc(F)cc1)c1cc2c(cc1Cl)Sc1nccn1S2(=O)=O | > 100 | – | > 100 | > 100 | > 100 | > 100 | > 100 | – | – | – | – | – | – | – | –
8 | CC1(C)[C@H]2Cc3cc4nc5ccccn5c4cc3[C@@H]1C2 | 39.4 | 29.9 | 34.7 | 30 | 54.8 | – | 33.6 | 29.3 | 26.9 | – | – | – | – | – | –
9 | Cc1cccc(-c2nc(-c3cnccn3)n(Cc3ccccc3)n2)c1 | > 100 | > 100 | > 100 | – | > 100 | 94.1 | > 100 | 79.6 | > 100 | – | – | – | – | – | –
10 | CC1(C)N([O-])[N+](=O)C1(C)O (stereo not given) | > 100 | > 100 | > 100 | > 100 | > 100 | > 100 | > 100 | – | > 100 | – | – | – | – | – | –
11 | O=C(O)c1ccc(Nc2cnc3cc(C(F)(F)F)ccc3n2)cc1 | > 100 | 53.6 | > 100 | > 100 | > 100 | > 100 | > 100 | – | > 100 | – | – | – | – | – | –
12 | COC(=O)[C@H](Cc1ccccc1)NC(=O)N(CCNC(=O)OC(C)(C)C)c1ccccc1 | > 100 | > 100 | > 100 | > 100 | > 100 | > 100 | – | – | > 100 | – | – | – | – | – | –
13 | CC/C=C\C=C/C(=O)N/C=C/CCC | > 100 | > 100 | – | > 100 | 95.6 | > 100 | > 100 | > 100 | > 100 | – | – | – | – | – | –
14 | O=C1CN(c2ccccc2)C(=O)CN1NCNN1CC(=O)N(c2ccccc2)CC1=O | – | > 100 | > 100 | > 100 | > 100 | > 100 | > 100 | > 100 | > 100 | – | – | – | – | – | –
15 | S=C(S)NCCN1CCNCC1 | > 100 | > 100 | 43.7 | > 100 | – | 64.3 | – | > 100 | > 100 | – | – | – | – | – | –
16 | CN(/N=C/C=N/N(C)C1=NCCN1)C1=NCCN1 | > 100 | > 100 | > 100 | > 100 | > 100 | – | > 100 | > 100 | > 100 | – | – | – | – | – | –
17 | C=C(C)COc1cc(NC(=S)OC(C)C)ccc1Cl | 30.4 | 32.7 | 31.6 | 28.7 | 34.3 | – | 30 | 26.7 | 26.9 | – | – | – | – | – | –
18 | C/C(=N\O)c1cccc(Nc2c3ccccc3nc3occc23)c1 | > 100 | 49.1 | > 100 | 9.3 | > 100 | – | 21.1 | 47.9 | > 100 | – | – | – | – | – | –
19 | COc1ccc(Nc2cc(=O)[nH]c(=O)[nH]2)cc1 | > 100 | – | > 100 | – | > 100 | > 100 | > 100 | > 100 | > 100 | – | – | – | – | – | –
20 | CCOC(=O)c1cc([N+](=O)[O-])c(Sc2ncnc3nc[nH]c23)c([N+](=O)[O-])c1 | 17.9 | 11.9 | 3.08 | 12.7 | – | 23.3 | 13.4 | 7.85 | 7.08 | – | – | – | – | – | –
21 | CC(C)C(/C=C/c1ccc(Cl)cc1)=N\NC(=O)N/N=C(/C=C/c1ccc(Cl)cc1)C(C)C | – | > 100 | > 100 | 35.6 | > 100 | 76.9 | 31.2 | 56.9 | > 100 | – | – | – | – | – | –
22 | C#CCn1c(=O)ccn(/C(=C/C(=O)OCC)C(=O)OCC)c1=O | 40.3 | 27.8 | – | 3.05 | > 56.4 | 3.3 | 3.99 | 6.32 | 25.3 | – | – | – | – | – | –
23 | CC(=O)Oc1cc(-c2oc3cc(OC(C)=O)c(C4OC(CO)C(O)C(O)C4O)c(OC(C)=O)c3c(=O)c2O)c(OC(C)=O)cc1O (stereo not given) | > 100 | > 100 | > 100 | > 100 | > 100 | > 100 | – | > 100 | > 100 | – | – | – | – | – | –
24 | O=C(OCC(OC(=O)c1ccccc1)C1CC(C2(O)CCCCC2)C(=O)O1)c1ccccc1 (stereo not given) | > 25 | 2.21 | > 25 | > 25 | 19.1 | > 25 | > 25 | – | 3.88 | – | – | – | – | – | –
25 | COC(=O)c1c2c(cc3c1CC1(C3)Cc3cc4c(c(C(=O)OC)c3C1)CCC4)CCC2 | > 100 | > 100 | > 100 | – | > 100 | > 100 | > 100 | > 100 | 28.4 | – | – | – | – | – | –
